Experimental data as given in US20250084074A1, “SUBSTITUTED HETEROCYCLES AS HSET INHIBITORS” (MERCK PATENT GMBH, priority 2022, published 2025).
Counter-ions that a name gives are not always drawn.

What follows are molecules tested against HSET full length protein (Homo sapiens (Human), UniProt Q9BW19) (assay: HSET ADP-Glo Assay S - 3 μM ATP). Details: 5 nM HSET, 70 μg/mL microtubule, 80 min at rt, read-out: COMBINED HSET ADP GLO IC50.
Assay type: biochemical
Summary of the method: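 Full-length human HSET (5 nM) with paclitaxel-stabilised bovine brain microtubules (70 μg/mL) in HEPES pH 6.8 buffer was preincubated 10 min with compound. ATP at 3 μM started the reaction, which ran 80 min at rt. ADP formed was measured by ADP-Glo luminescence.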

HSET full length protein, sequence (Q9BW19 whole entry): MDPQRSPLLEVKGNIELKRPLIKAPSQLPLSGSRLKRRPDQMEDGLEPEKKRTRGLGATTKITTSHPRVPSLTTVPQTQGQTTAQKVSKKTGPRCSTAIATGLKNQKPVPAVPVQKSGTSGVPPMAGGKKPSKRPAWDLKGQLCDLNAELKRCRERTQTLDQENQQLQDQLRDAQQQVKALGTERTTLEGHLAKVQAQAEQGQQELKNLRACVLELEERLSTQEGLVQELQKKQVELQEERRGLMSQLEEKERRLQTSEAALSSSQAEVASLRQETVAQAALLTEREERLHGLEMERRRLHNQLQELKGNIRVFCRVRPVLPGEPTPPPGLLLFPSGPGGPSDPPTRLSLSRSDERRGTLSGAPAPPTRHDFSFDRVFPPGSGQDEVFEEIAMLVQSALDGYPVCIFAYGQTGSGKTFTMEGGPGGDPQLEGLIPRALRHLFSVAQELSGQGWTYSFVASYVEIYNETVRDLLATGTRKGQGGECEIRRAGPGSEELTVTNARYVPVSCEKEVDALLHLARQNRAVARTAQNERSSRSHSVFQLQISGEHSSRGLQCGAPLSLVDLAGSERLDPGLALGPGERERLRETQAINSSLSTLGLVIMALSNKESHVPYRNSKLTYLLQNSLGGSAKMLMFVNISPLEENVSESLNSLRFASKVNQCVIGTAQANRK

| Structure (SMILES) | IC50 [nM] |
| --- | --- |
| Cc1nc(NC(=O)C[C@H](CC#N)NC(=O)c2cccc(-c3cnn(C)c3)c2)sc1C(=O)OC(C)C [Example 203] | 1100 |
| CCCOC(=O)c1sc(NC(=O)[C@@H]2C[C@H](Nc3nccc4ccc(-c5noc(C)n5)cc34)CN2C)nc1C [Example 237, Propyl 4-methyl-2-((2S,4S)-1-methyl-4-((7-(5-methyl-1,2,4-oxadiazol-3-yl)isoquinolin-1-yl)amino)pyrrolidine-2-carboxamido)thiazole-5-carboxylate] | 100 |
| Cc1nc(-c2ccc3ccnc(NCCC(=O)Nc4cc(C(C)(C)C)n(C)n4)c3c2)no1 [Example 82, N-(5-(tert-butyl)-1-methyl-1 H-pyrazol-3-yl)-3-((7-(5-methyl-1,2,4-oxadiazol-3-yl)isoquinolin-1-yl)amino)propanamide] | 1480 |
| CCCOC(=O)c1sc(C(=O)N2C[C@@H](F)[C@H](Nc3nccc4ccc(-c5noc(C)n5)cc34)C2)nc1C [Example 256, propyl 2-((3R,4R)-3-fluoro-4-((7-(5-methyl-1,2,4-oxadiazol-3-yl)isoquinolin-1-yl)amino)pyrrolidine-1-carbonyl)-4-methylthiazole-5-carboxylate] | 20 |
| CCN(c1nc(C)c(C(=O)OC(C)(C)C)s1)C(=O)[C@H]1C[C@@H](Nc2nccc3ccc(-c4noc(C)n4)cc23)C1 [Example 218, tert-Butyl 2-((1s,3s)-N-ethyl-3-((7-(5-methyl-1,2,4-oxadiazol-3-yl)isoquinolin-1-yl)amino)cyclobutanecarboxamido)-4-methylthiazole-5-carboxylate formate] | 41 |
| CCOC(=O)c1sc(NC(=O)CCNC(=O)c2ccc(C)c(C(=O)OC)c2)nc1C [Example 14, Ethyl 2-[3-[(3-methoxycarbonyl-4-methyl-benzoyl)amino]propanoylamino]-4-methyl-thiazole-5-carboxylate] | 325 |
| Cc1nc(-c2cc(C(=O)NCCC(=O)Nc3nc(C)c(C(=O)OCCCCCCO)s3)cc(C(F)(F)F)c2)no1 [Example 136, 6-Hydroxyhexyl 4-methyl-2-(3-(3-(5-methyl-1,2,4-oxadiazol-3-yl)-5-(trifluoromethyl)benzamido)propanamido)thiazole-5-carboxylate] | 737 |
| CCCOC(=O)c1sc(C(=O)N2CC[C@H](Nc3nccc4ccc(-c5noc(C)n5)cc34)C2)nc1C [Example 243, Propyl (S)-4-methyl-2-(3-((7-(5-methyl-1,2,4-oxadiazol-3-yl)isoquinolin-1-yl)amino)pyrrolidine-1-carbonyl)thiazole-5-carboxylate] | 11 |
| CCCOC1(c2sc(NC(=O)CCNc3nccc4ccc(-c5noc(C)n5)cc34)nc2C)COC1 [Example 84] | 57 |
| CNCCC[C@@H](CC(=O)Nc1nc(C)c(C(=O)OC(CF)CF)s1)Nc1nccc2ccc(-c3noc(C)n3)cc12 [Example 166, 1,3-Difluoropropan-2-yl (S)-4-methyl-2-(3-((7-(5-methyl-1,2,4-oxadiazol-3-yl)isoquinolin-1-yl)amino)-6-(methylamino)hexanamido)thiazole-5-carboxylate] | 11 |
| CCCOC(=O)c1sc(NC(=O)CCNc2nccc3ccc(C)cc23)nc1C [Example 280, Propyl 4-methyl-2-[3-[(7-methyl-1-isoquinolyl)amino]propanoyl-amino]thiazole-5-carboxylate] | 141 |
| COC(=O)c1sc(NC(=O)CCNc2nccc3ccc(-c4noc(C)n4)cc23)nc1C [Example 46, Methyl 4-methyl-2-[3-[[7-(5-methyl-1,2,4-oxadiazol-3-yl)-1-isoquinolyl]amino]propanoylamino]thiazole-5-carboxylate] | 37 |
| CCOC(=O)c1sc(NC(=O)CCNC(=O)c2cc(Cl)cc(C(=O)OC)c2)nc1C [Example 13, Ethyl 2-[3-[(3-chloro-5-methoxycarbonyl-benzoyl)amino]propanoylamino]-4-methyl-thiazole-5-carboxylate] | 9 |
| CCCOC(=O)c1sc(NC(=O)CCNC(=O)c2cc(C(=O)OC)cc(C(C)(C)C)c2)nc1C [Example 29, Propyl 2-(3-(3-(tert-butyl)-5-(methoxycarbonyl)benzamido)propanamido)-4-methylthiazole-5-carboxylate] | 77 |

Results, then the molecule that gave them:

| IC50 [nM] | Structure (SMILES) |
| --- | --- |
| 13 | CCCOC(=O)c1sc(NC(=O)CCNC(=O)c2cc(C)cc(-c3noc(C)n3)c2)nc1C [Example 26, Propyl 4-methyl-2-(3-(3-methyl-5-(5-methyl-1,2,4-oxadiazol-3-yl)benzamido)propanamido)thiazole-5-carboxylate] |
| 86 | Cc1nc(-c2cccc(C(=O)NC3CN(C(=O)Nc4nc(C)c(C(=O)OC(C)(C)C)s4)C3)c2)no1 [Example 228, tert-Butyl 4-methyl-2-[[3-[[3-(5-methyl-1,2,4-oxadiazol-3-yl)benzoyl]amino]azetidine-1-carbonyl]amino]thiazole-5-carboxylate] |
| 36 | CCCOC(=O)c1sc(N(C)C(=O)CCNC(=O)c2cccc(-c3noc(C)n3)c2)nc1C [Example 121, Propyl-4-methyl-2-(N-methyl-3-(3-(5-methyl-1,2,4-oxadiazol-3-yl)benzamido)propanamido)thiazole-5-carboxylate] |
| 84 | CCOC(=O)c1sc(NC(=O)CC(CC)NC(=O)c2cccc(-c3noc(C)n3)c2)nc1C (stereo not shown) [Example 215] |
| 1310 | CCCN(C(=O)CCNC(=O)c1cccc(-c2noc(C)n2)c1)c1nc(C)c(C(=O)OCC)s1 [Example 134, Ethyl-4-methyl-2-(3-(3-(5-methyl-1,2,4-oxadiazol-3-yl)benzamido)-N-propylpropanamido)thiazole-5-carboxylate] |
| 2730 | CCOC(=O)c1sc(NC(=O)CCNC(=O)c2cccc(C)c2)nc1C [Example 1, Ethyl 4-methyl-2-(3-(3-methylbenzamido)propanamido)thiazole-5-carboxylate] |
| 6780 | CCCOC(=O)c1sc(NC(=O)[C@H]2C[C@@H](NC(=O)c3cccc(-c4noc(C)n4)c3)CN2C)nc1C [Example 235, Propyl 4-methyl-2-((2R,4R)-1-methyl-4-(3-(5-methyl-1,2,4-oxadiazol-3-yl)benzamido)pyrrolidine-2-carboxamido)thiazole-5-carboxylate] |
| 39 | COc1ccc(CCCOC(=O)c2sc(NC(=O)CCNC(=O)c3cccc(-c4noc(C)n4)c3)nc2C)cc1 [Example 126, 3-(4-methoxyphenyl)propyl 4-methyl-2-(3-(3-(5-methyl-1,2,4-oxadiazol-3-yl)benzamido)propanamido)thiazole-5-carboxylate] |
| 63 | CCOC(=O)c1sc(NC(=O)CCNC(=O)c2cccc(-c3noc(C)n3)c2)nc1C [Example 4, Ethyl 4-methyl-2-(3-(3-(5-methyl-1,2,4-oxadiazol-3-yl)benzamido)propanamido)thiazole-5-carboxylate] |
| 93 | Cc1nc(-c2cccc(C(=O)N[C@H]3C[C@@H](C(=O)Nc4nc(C)c(C(=O)OC(C)(C)C)s4)C3)c2)no1 [Example 104, tert-Butyl 4-methyl-2-((1s,3s)-3-(3-(5-methyl-1,2,4-oxadiazol-3-yl)benzamido)cyclobutane-1-carboxamido)thiazole-5-carboxylate] |
| 55 | COCCOCCCCOC(=O)c1sc(NC(=O)CCNC(=O)c2cccc(-c3noc(C)n3)c2)nc1C [Example 127, 4-(2-methoxyethoxy)butyl 4-methyl-2-(3-(3-(5-methyl-1,2,4-oxadiazol-3-yl)benzamido)propanamido)thiazole-5-carboxylate] |
